{
  "source": "patent US20050009894A1",
  "about": "(Aventis Pharma S.A., priority 2001, published 2005)",
  "data": [
    {"biological_target": "T1, human KDR enzyme (Homo sapiens, UniProt P35968)", "T1 construct": "The cytoplasmic domain of human KDR enzyme is cloned in the form of a GST fusion; GST; made in house; host or cells: SF21 insect cells (baculovirus, pFastBac)", "T1 sequence (P35968 786-1356 limits assumed)": "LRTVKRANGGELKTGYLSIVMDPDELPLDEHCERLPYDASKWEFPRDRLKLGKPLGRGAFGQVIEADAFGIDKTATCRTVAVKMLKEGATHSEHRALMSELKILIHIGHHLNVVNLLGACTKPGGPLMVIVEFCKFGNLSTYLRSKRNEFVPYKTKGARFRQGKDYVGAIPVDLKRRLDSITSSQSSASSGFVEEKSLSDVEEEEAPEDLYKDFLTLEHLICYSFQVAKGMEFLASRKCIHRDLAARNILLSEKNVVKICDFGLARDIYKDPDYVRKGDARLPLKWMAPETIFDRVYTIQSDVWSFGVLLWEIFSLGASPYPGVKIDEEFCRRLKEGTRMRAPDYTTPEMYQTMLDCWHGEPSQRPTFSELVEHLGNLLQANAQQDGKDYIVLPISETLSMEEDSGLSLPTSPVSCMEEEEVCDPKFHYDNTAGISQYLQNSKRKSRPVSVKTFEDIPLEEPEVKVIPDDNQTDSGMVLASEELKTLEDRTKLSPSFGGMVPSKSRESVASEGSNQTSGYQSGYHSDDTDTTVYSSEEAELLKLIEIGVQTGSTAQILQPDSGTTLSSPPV", "assay": "Phosphorylation of the substrate PLCγ by the enzyme KDR in vitro (flashplate technique)", "type": "biochemical", "settings": "Table VII, degrees of activity by IC50 range; read-out: Activity", "procedure": "The inhibitory effect of the compounds is determined in a test of phosphorylation of a substrate by the enzyme KDR in vitro by the flasplate technique (96-well plate, NEN). The cytoplasmic domain of human KDR enzyme is cloned in the form of a GST fusion into the baculovirus expression vector pFastBac. The protein is expressed in the SF21 cells and purified to about 60% homogeneity.\nThe kinase activity of KDR is measured in 20 mM MOPS, 10 mM MgCl2, 10 mM MnCl2, 1 mM DTT, 2.5 mM EGTA, 10 mM β-glycerophosphate, pH 7.2 in the presence of 10 mM MgCl2, 100 μM Na3VO4, 1 mM NaF. 10 μl of the compound are added to 70 μl of kinase buffer containing 100 ng of KDR enzyme at 4° C. The reaction is initiated by adding 20 μl of solution containing 2 μg of substrate (fragment SH2-SH3 of PLCγ expressed in the form of a GST fusion protein), 2 μCi γ33P[ATP] and 2 μM cold ATP. After incubating for 1 h at 37° C., the reaction is quenched by adding 1 volume (100 μl) of 200 mM EDTA. The incubation buffer is removed and the wells are washed three times with 300 μl of PBS. The radioactivity is measured in each well using a Top Count NXT instrument (Packard).\nBackground noise is determined by measuring the radio-activity in wells in quadruplet containing radioactive ATP and the substrate alone.\nAn activity control is measured in wells in quadruplet containing all the reagents (γ33P-[ATP], KDR and the substrate PLCγ) and in the absence of compound.\nThe inhibition of the KDR activity with the compound of the invention is expressed as a percentage of inhibition of the control activity determined in the absence of compound.\nThe compound SU5614 (Calbiochem) (1 μM) is included in each plate as inhibition control.\nThe IC50 values for the compounds are calculated by plotting the dose-response curves. The IC50 corresponds to the concentration of compound that induces a 50% inhibition of the kinase activity.", "units": {"IC50": "µM"}, "values": [
      {"smiles": "O=C(NCc1cccc(Cl)c1)c1ccc2[nH]c(-c3n[nH]c4ccccc34)nc2c1", "note": "[Example 72, 2-(1H-Indazol-3-yl)-1H-benzoimidazole-5-carboxylic acid 3-chloro-benzylamide]", "IC50": "< 0.3"},
      {"smiles": "NS(=O)(=O)c1ccc(CNC(=O)c2cccc3nc(-c4n[nH]c5ccccc45)[nH]c23)cc1", "note": "[Example 73, 2-(1H-Indazol-3-yl)-3H-benzoimidazole-4-carboxylic acid 4-sulfamoyl-benzylamide]", "IC50": "0.3 to 3"},
      {"smiles": "CCOCCCNC(=O)c1cccc2nc(-c3n[nH]c4ccccc34)[nH]c12", "note": "[Example 74, 2-(1H-Indazol-3-yl)-3H-benzoimidazole-4-carboxylic acid (3-ethoxy-propyl)-amide]", "IC50": "> 3"},
      {"smiles": "O=C(NCc1ccc(Br)cc1)c1cccc2nc(-c3n[nH]c4ccccc34)[nH]c12", "note": "[Example 75, 2-(1H-Indazol-3-yl)-3H-benzoimidazole-4-carboxylic acid 4-bromo-benzylamide]", "IC50": "> 3"},
      {"smiles": "O=C(NCc1cccc2ccccc12)c1cccc2nc(-c3n[nH]c4ccccc34)[nH]c12", "note": "[Example 76, 2-(1H-Indazol-3-yl)-3H-benzoimidazole-4-carboxylic acid (naphthalen-1-ylmethyl)-amide]", "IC50": "> 3"},
      {"smiles": "O=C(NCc1cccs1)c1cccc2nc(-c3n[nH]c4ccccc34)[nH]c12", "note": "[Example 77, 2-(1H-Indazol-3-yl)-3H-benzoimidazole-4-carboxylic acid (thiophen-2-ylmethyl)-amide]", "IC50": "> 3"},
      {"smiles": "CN(C)c1ccc(CNC(=O)c2cccc3nc(-c4n[nH]c5ccccc45)[nH]c23)cc1", "note": "[Example 78, 2-(1H-Indazol-3-yl)-3H-benzoimidazole-4-carboxylic acid 4-dimethylamino-benzylamide]", "IC50": "> 3"},
      {"smiles": "O=C(NCc1ccc([N+](=O)[O-])cc1)c1cccc2nc(-c3n[nH]c4ccccc34)[nH]c12", "note": "[Example 79, 2-(1H-Indazol-3-yl)-3H-benzoimidazole-4-carboxylic acid 4-nitro-benzylamide]", "IC50": "> 3"},
      {"smiles": "O=C(NCc1cccnc1)c1cccc2nc(-c3n[nH]c4ccccc34)[nH]c12", "note": "[Example 80, 2-(1H-Indazol-3-yl)-3H-benzoimidazole-4-carboxylic acid (pyridin-3-ylmethyl)-amide]", "IC50": "0.3 to 3"},
      {"smiles": "O=C(NCc1cccc(Br)c1)c1cccc2nc(-c3n[nH]c4ccccc34)[nH]c12", "note": "[Example 81, 2-(1H-Indazol-3-yl)-3H-benzoimidazole-4-carboxylic acid 3-bromo-benzylamide]", "IC50": "> 3"},
      {"smiles": "COc1cccc(CNC(=O)c2cccc3nc(-c4n[nH]c5ccccc45)[nH]c23)c1", "note": "[Example 82, 2-(1H-Indazol-3-yl)-3H-benzoimidazole-4-carboxylic acid 3-methoxy-benzylamide]", "IC50": "0.3 to 3"},
      {"smiles": "O=C(NCc1csc2ccccc12)c1cccc2nc(-c3n[nH]c4ccccc34)[nH]c12", "note": "[Example 83, 2-(1H-Indazol-3-yl)-3H-benzoimidazole-4-carboxylic acid (benzo[b]thiophen-3-ylmethyl)-amide]", "IC50": "> 3"},
      {"smiles": "O=C(NCc1ccc(Oc2ccccc2)cc1)c1cccc2nc(-c3n[nH]c4ccccc34)[nH]c12", "note": "[Example 84, 2-(1H-Indazol-3-yl)-3H-benzoimidazole-4-carboxylic acid 4-phenoxy-benzylamide]", "IC50": "> 3"},
      {"smiles": "O=C(NCc1cccc(OC(F)(F)F)c1)c1cccc2nc(-c3n[nH]c4ccccc34)[nH]c12", "note": "[Example 85, 2-(1H-Indazol-3-yl)-3H-benzoimidazole-4-carboxylic acid 3-trifluoromethoxy-benzylamide]", "IC50": "> 3"},
      {"smiles": "O=C(NCc1ccc(Cl)nc1)c1cccc2nc(-c3n[nH]c4ccccc34)[nH]c12", "note": "[Example 86, 2-(1H-Indazol-3-yl)-3H-benzoimidazole-4-carboxylic acid (6-chloro-pyridin-3-ylmethyl)-amide]", "IC50": "> 3"},
      {"smiles": "O=C(NCc1ccc2c(c1)CCO2)c1cccc2nc(-c3n[nH]c4ccccc34)[nH]c12", "note": "[Example 87, 2-(1H-Indazol-3-yl)-3H-benzoimidazole-4-carboxylic acid (2,3-dihydro-benzofuran-5-ylmethyl)-amide]", "IC50": "> 3"},
      {"smiles": "O=C(NCc1cccc(C(F)(F)F)c1)c1cccc2nc(-c3n[nH]c4ccccc34)[nH]c12", "note": "[Example 88, 2-(1H-Indazol-3-yl)-3H-benzoimidazole-4-carboxylic acid 3-trifluoromethyl-benzylamide]", "IC50": "> 3"},
      {"smiles": "CSc1ccccc1CNC(=O)c1cccc2nc(-c3n[nH]c4ccccc34)[nH]c12", "note": "[Example 89, 2-(1H-Indazol-3-yl)-3H-benzoimidazole-4-carboxylic acid 2-methylsulfanyl-benzylamide]", "IC50": "< 0.3"},
      {"smiles": "O=C(NCc1ccoc1)c1cccc2nc(-c3n[nH]c4ccccc34)[nH]c12", "note": "[Example 90, 2-(1H-Indazol-3-yl)-3H-benzoimidazole-4-carboxylic acid (furan-3-ylmethyl)-amide]", "IC50": "0.3 to 3"},
      {"smiles": "O=C(NCc1ccccc1[N+](=O)[O-])c1cccc2nc(-c3n[nH]c4ccccc34)[nH]c12", "note": "[Example 91, 2-(1H-Indazol-3-yl)-3H-benzoimidazole-4-carboxylic acid 2-nitro-benzylamide]", "IC50": "0.3 to 3"},
      {"smiles": "Cc1cc(C)cc(CNC(=O)c2cccc3nc(-c4n[nH]c5ccccc45)[nH]c23)c1", "note": "[Example 92, 2-(1H-Indazol-3-yl)-3H-benzoimidazole-4-carboxylic acid 3,5-dimethyl-benzylamide]", "IC50": "0.3 to 3"},
      {"smiles": "O=C(NCc1cccc(Cl)c1)c1cccc2nc(-c3n[nH]c4ccccc34)[nH]c12", "note": "[Example 93, 2-(1H-Indazol-3-yl)-3H-benzoimidazole-4-carboxylic acid 3-chloro-benzylamide]", "IC50": "> 3"},
      {"smiles": "O=C(Nc1ccccc1)c1cccc2nc(-c3n[nH]c4ccccc34)[nH]c12", "note": "[Example 94, 2-(1H-Indazol-3-yl)-3H-benzoimidazole-4-carboxylic acid phenylamide]", "IC50": "0.3 to 3"},
      {"smiles": "O=C(NCc1ccccc1)c1cccc2nc(-c3n[nH]c4ccccc34)[nH]c12", "note": "[Example 95, 2-(1H-Indazol-3-yl)-3H-benzoimidazole-4-carboxylic acid benzylamide]", "IC50": "> 3"},
      {"smiles": "O=C(NCCc1ccccc1)c1cccc2nc(-c3n[nH]c4ccccc34)[nH]c12", "note": "[Example 96, 2-(1H-Indazol-3-yl)-3H-benzoimidazole-4-carboxylic acid phenethyl-amide]", "IC50": "> 3"},
      {"smiles": "c1ccc(-c2ccc3nc(-c4[nH]nc5ccccc45)[nH]c3c2)cc1", "note": "[Example 97, 3-(6-Phenyl-1H-benzimidazol-2-yl)-2H-indazole]", "IC50": "> 3"},
      {"smiles": "Clc1ccc(-c2ccc3nc(-c4[nH]nc5ccccc45)[nH]c3c2)c(Cl)c1", "note": "[Example 98, 3-[6-(2,4-Dichloro-phenyl)-1H-benzoimidazol-2-yl]-2H-indazole]", "IC50": "> 3"},
      {"smiles": "c1ccc2c(-c3ccc4nc(-c5[nH]nc6ccccc56)[nH]c4c3)cccc2c1", "note": "[Example 99, 3-(6-Naphthalen-1-yl-1H-benzoimidazol-2-yl)-2H-indazole]", "IC50": "> 3"},
      {"smiles": "Fc1ccc(-c2ccc3nc(-c4[nH]nc5ccccc45)[nH]c3c2)cc1", "note": "[Example 100, 3-[6-(4-Fluoro-phenyl)-1H-benzoimidazol-2-yl]-2H-indazole]", "IC50": "0.3 to 3"},
      {"smiles": "Clc1ccc(-c2ccc3nc(-c4[nH]nc5ccccc45)[nH]c3c2)cc1", "note": "[Example 101, 3-[6-(4-Chloro-phenyl)-1H-benzoimidazol-2-yl]-2H-indazole]", "IC50": "> 3"},
      {"smiles": "COc1ccc(-c2ccc3nc(-c4[nH]nc5ccccc45)[nH]c3c2)cc1", "note": "[Example 102, 3-[6-(4-Methoxy-phenyl)-1H-benzoimidazol-2-yl]-2H-indazole]", "IC50": "0.3 to 3"},
      {"smiles": "Fc1ccc(-c2ccc3nc(-c4[nH]nc5ccccc45)[nH]c3c2)cc1Cl", "note": "[Example 103, 3-[6-(3-Chloro-4-fluoro-phenyl)-1H-benzoimidazol-2-yl]-2H-indazole]", "IC50": "0.3 to 3"},
      {"smiles": "Clc1cc(Cl)cc(-c2ccc3nc(-c4[nH]nc5ccccc45)[nH]c3c2)c1", "note": "[Example 104, 3-[6-(3,5-Dichloro-phenyl)-1H-benzoimidazol-2-yl]-2H-indazole]", "IC50": "> 3"},
      {"smiles": "c1ccc2c(c1)Sc1cccc(-c3ccc4nc(-c5n[nH]c6ccccc56)[nH]c4c3)c1S2", "note": "[Example 105, 3-(6-Thianthren-1-yl-1H-benzoimidazol-2-yl)-2H-indazole]", "IC50": "> 3"},
      {"smiles": "c1ccc(-c2ccc(-c3ccc4nc(-c5[nH]nc6ccccc56)[nH]c4c3)cc2)cc1", "note": "[Example 106, 3-(6-Biphenyl-4-yl-1H-benzoimidazol-2-yl)-2H-indazole]", "IC50": "> 3"},
      {"smiles": "Cc1ccc(-c2ccc3nc(-c4[nH]nc5ccccc45)[nH]c3c2)cc1", "note": "[Example 107, 3-(6-p-Tolyl-1H-benzoimidazol-2-yl)-2H-indazole]", "IC50": "> 3"},
      {"smiles": "Cc1cccc(-c2ccc3nc(-c4[nH]nc5ccccc45)[nH]c3c2)c1", "note": "[Example 108, 3-(6-m-Tolyl-1H-benzoimidazol-2-yl)-2H-indazole]", "IC50": "0.3 to 3"}
    ]}
  ]
}
